Test results reported in US6620843B2, “Anticancer treatment using triptolide prodrugs” (priority 2001, dated 2003).
Like-named read-outs stand apart in the source and are kept apart here.

Test system: HT-29 human colon tumors
Procedure: Human Tumor Xenograft Study. An HT-29 human colon cancer cell line was purchased from ATCC (Manassas, Va.). Cells were cultured in DMEM (Dulbecco's Modified Eagle's Medium) from GIBIOBRL (Grand Island, N.Y.) with 10% fetal bovine serum (FBS) supplemented with L-glutamine and Penicillin/Streptomycin. The tumor cells were harvested when cultures reached 80-90% confluence. The supernatants were discarded and the cell pellets were suspended to 1×10^8 cells/ml in DMEM medium without FBS. HT-29 cells (5×10^6) were implanted intradermally on the back of each mouse. Tumor size was monitored by measuring the length (L), width (W), and height (H) of each tumor and calculating tumor volume (Vol=½×4/3π×(L/2)×(W/2)×H).
Mice bearing human tumor cell xenografts were treated with PG490-88 IP daily for 5 days per week. The compound was administered as the sodium salt. CPT-11 was administered IV twice per week. 5-FU was given IP daily for 5 days per week. The stock solutions of each therapeutic agent were diluted in 0.9% NaCl for dosing. The agents were given to mice at 100 μl per 10 g of mouse body weight. Mice were dosed for two weeks, and 0.9% NaCl was used as the vehicle control. Tumor volume was monitored, and toxicity of the chemotherapeutic treatment was monitored by weighing the mice every day.

## CC(C)[C@]12O[C@H]1[C@@H]1O[C@]13[C@]1(O[C@H]1C[C@H]1C4=C(CC[C@@]13C)C(=O)OC4)[C@@H]2OC(=O)CCC(=O)O [PG490-88, triptolide 14-succinate]
0.125 mg/kg, by day 16
  tumor growth inhibition (in words): slightly inhibited
0.25 mg/kg, by day 16
  tumor growth inhibition (in words): moderate inhibition
0.75 mg/kg, by day 16
  tumor growth inhibition (in words): strongly inhibited tumor growth and induced tumor regression
0.125-0.75 mg/kg
  tumor growth inhibition, dose dependence (in words): inhibited HT-29 tumor growth in a dose-dependent manner
PG490-88 0.125 mg/kg IP daily 5 days per week, day 16 vs initial value, vehicle control 721%
  percent increase in mean tumor volume at day 16: 462%
PG490-88 0.25 mg/kg IP daily 5 days per week, day 16 vs initial value, vehicle control 721%
  percent increase in mean tumor volume at day 16: 131%
PG490-88 0.75 mg/kg IP daily 5 days per week, day 16
  percent decrease in mean tumor volume at day 16 from the initial value: 54%
PG490-88 0.75 mg/kg, day 9
  mean tumor volume at day 9 (in words): decreased from the day 5 value to approximately the initial value

## O=c1[nH]cc(F)c(=O)[nH]1 [5-FU, 5-fluorouracil, reference compound]
5-FU 20 mg/kg
  tumor growth inhibition (in words): only slightly inhibited tumor growth
5-FU 20 mg/kg IP daily 5 days per week, day 16, control group 721%
  percent increase in mean tumor volume at day 16: 470%
mouse, in vivo
  toxicity in tumor-bearing mice: showed signs of toxicity

## CCc1c2c(nc3ccc(OC(=O)N4CCC(N5CCCCC5)CC4)cc13)-c1cc3c(c(=O)n1C2)COC(=O)[C@]3(O)CC [CPT-11, irinotecan, reference compound]
CPT-11 22 mg/kg
  tumor growth inhibition (in words): slight to moderate
